In patent publication US5041581A (priority 1986, dated 1991):

Tests used:
L1210 mouse leukemia = assay: In vivo antitumor activity against L1210 mouse leukemia (L1210-BDF1 mouse model); set-up: species or system BDF1 mice; conditions: for Optimal dose: L1210 ip/ip, single dose
Description: BDF1 mice were purchased from Charles River (Wilmington, MA). Groups of 6-8 mice weighing 18-22 gm were inoculated ip with 1×10^6 L1210 leukemia cells on day 0. L1210 cells were kept in DBA2 mice were weekly passages between the different experiments. All L-PT preparations were injected ip in volumes of 0.1 to 0.3 ml 24 hours after tumor inoculation. Two different schedules of administration were used: a single injection on day 1 or an injection on days 1, 5 and 9 (multiple). […] Clinical behavior and survival times were monitored until all animals had died. Results were expressed as % T/C (median survival time of treated mice/median survival time of control mice ×100) and number of long-term survivors. Mice living more than 30 days and more than 60 days were considered to be long-term survivors for the single and multiple injection schedule respectively. All L-PT preparations tested for antitumor activity were prepared under sterile conditions on the same day of the experiment.
The antitumor activity against L-1210 murine leukemia of the different L-PT analogs was assessed in an L-1210-BDF, mouse model (tumor inoculation day 0, treatment day 1, ip) as described earlier herein.
These liposome-encapsulated compounds were tested to determine their optimal dose and effectiveness as inhibitors of in vivo tumor growth as described in Example 12.

[1] = Encapsulation efficiency of platinum complexes in multilamellar liposomes (UV spectrophotometry / x-ray fluorescence); assay type: physicochemical; conditions: for % Encapsulation Efficiency: liposomes DMPC:DMPG 7:3, mean of at least three experiments; for Encapsulation Efficiency: lipophilic cisplatin analogues incorporated in liposomes (Table 12)
Description: Multilamellar lipid vesicles (MLV) or liposomes containing incorporated platinum complexes (PT) of the above descriptions were prepared as previously described for other compounds (Lopez-Berestein et al (4)(1984) Clin. Exp. Metastasis V 2 pp 127-137 and Lopez-Berestein et al (1983) J Inf Dis V 147 pp 937-945). In brief, chloroform solutions of lipids (at the desired molar ratio) and PT were mixed at a lipid-PT ratio of 15:1 and the chloroform was evaporated in a rotary evaporator (Buchi, Brinkmann Instruments, Westbury, NY). The dried lipid film obtained, containing PT, was then dispersed with an aqueous solution (0.9% NaCl in water) by vigorous handshaking. The suspension was subsequently centrifuged at 30,000 ×g for 45 minutes, the supernatant was discarded, and the pellet containing PT was resuspended in 0.9% NaCl solution.
Elemental platinum (Pt) was determined in the liposome suspension and the pellet by x-ray fluorescence as previously reported (Seifert et al (1979) Proc. Amer. Ass'n. Cancer Res. V 20 p. 168) in the Department of Analytical Chemistry, The University of Texas Medical School at Houston, TX. The amount of platinum complex (PT) was determined in the supernatant by ultraviolet (UV) spectrophotometry using a wavelength of 224 nm. The EE was initially calculated with the two following formulas:
1. EE =Pt in pellet/total Pt in the initial liposome suspension
2. EE =Total Pt initially added - Pt in supernatant/total Pt initially added
The encapsulation efficiency for Pt-cyclopentenecarboxylato racemic-DACH was 66%. […] The encapsulation efficiency for Pt-neodecanoato-racemic-DACH, Pt-neodecanoatotrans-RR-DACH, Pt-n-decyliminodiacetato racemic DACH complexes are presented in Table I, shown below.
The compounds prepared in Examples 14-19 were tested for their efficiency of encapulation in liposomes by the methods described in Example 6. These liposome-encapsulated compounds were tested to determine their optimal dose and effectiveness as inhibitors of in vivo tumor growth as described in Example 12. The data in Table 12 reveal the resultant measurements.

[2] = Stability of L-PT in 0.9% saline at 4° C. for 14 days; assay type: physicochemical; conditions: for Stability % (PT remaining in the liposomes): 0.9% saline, 4° C., DMPC:DMPG 7:3; for stability compared with Pt cyclopentenecarboxylato-racemic-DACH, in words: saline
Description: The stability of the different liposome-PT (L-PT) preparations in 0.9% NaCl solution at 4° C., and 50% human (AB) serum in 0.9% NaCl solution at 37° C. was determined using the following formula: [formula]
The EE values used in the stability determinations were obtained by measuring PT in the supernatants by UV spectrophotometry (0.9% NaCl solution) or x-ray fluorescence (50% human AB serum). The stability in 0.9% NaCl solution was determined up to 14 days after the initial preparation. In addition, the L-PT preparations were observed microscopically on day 14 to check the morphology of the vesicles. The stability in 50% human AB serum was determined up to 18 hours after incubation.
Preparations were suspended in 0.9% saline and incubated at 4° C. for 14 days. The liposome compositions were observed by light microscopy and the amount of free PT in the saline determined. […] Free PT was determined and stability was calculated as the percentage PT remaining in the liposomes.

[3] = Solubility in organic solvents and water; assay type: physicochemical; conditions: for solubility in methanol and chloroform, in words: chloroform (and other organic solvents where stated)
[4] = Nephrotoxicity: blood urea nitrogen (BUN) 96 hours after ip LD50 dose; assay type: in vivo, CD1 Swiss mice; conditions: for BUN at 96 hours: ip single injection at LD50 dose
Description: All L-PT preparations tested for toxicity were prepared under sterile conditions on the same day of the experiments.

[5] = Acute toxicity (LD10, LD50, LD90) in CD-1 Swiss mice; assay type: in vivo
Description: Toxicology studies were carried out in 6-8 weeks old CD-1 Swiss mice weighing 22-25 gm and purchased from The University of Texas Science Park (Bastrop, TX). Free PT in suspension in hydroxypropylcellulose, DMPG, DMPG-PT, DMPC:DMPG 7:3 and DMPC:DMPG 7:3-PT were administered intraperitoneally (ip) in volumes ranging between 0.1 and 0.3 ml. DMPC:DMPG 7:3-PT was also administered intravenously (iv) in one single injection or in 3 daily injections. The clinical behavior and the survival times were monitored on a daily basis.

L1210 cells = assay: In vitro growth inhibition of L1210 leukemic cells (96 hours, Coulter Counter); assay type: cell-based, murine; conditions: Exp. 1; 5760 min
Description: Four ml of cell suspension were added to culture tubes and the appropriate concentration of free PT or L-PT was added (from 0.01 micro g/ml to 10 micro g/ml final concentration). After 96 hours, the cell concentration of control and experimental cultures were calculated with a Coulter Counter (Coulter Electronics, Hialeah, FLA) and the percent inhibition calculated. The following preparations were tested: free PT, DMPG, DMPC:DMPG 7:3, DMPG-PT and DMPC:DMPG 7:3-PT.

[6] = 25 mg/kg ip day 1, liposomes DMPC:DMPG 7:3 (Table 8)
[7] = L1210 ip/ip single dose at the optimal dose, incorporated in liposomes (Table 12)
[8] = incorporated in liposomes (Table 12)

Molecule | % T/C (L1210 mouse leukemia; [6]) [%] | Stability % (PT remaining in the liposomes) [2] [%] | % T/C (L1210 mouse leukemia; [7]) [%] | Optimal dose (L1210 mouse leukemia; [8]) [mg/kg] | Encapsulation Efficiency [1] [%] | solubility in methanol and chloroform, in words [3] | solubility in water, in words [3] | also measured
cis-bis-neodecanoato-RR-DACH-Platinum (II) [Pt-neodecanoato-trans-RR-DACH] | 175 | 99 | – | – | – | – | – | % Encapsulation Efficiency [1]: 99%
cis-bis-neodecanoato-ethylenediamine-platinum(II) | – | – | 144 | 75 | – | – | – | –
cis-bis-neodecanoato-bis-diamine-platinum (II) | – | – | 200 | 50 | 95 | highly soluble | insoluble | –
cis-bis-neodecanoato-bis-isopropylamine-platinum (II) | – | – | 150 | 100 | 87 | highly soluble | insoluble | –
O=C([O][Pt]1([O]C(=O)C2=CCCC2)[NH][C@H]2CCCC[C@@H]2[NH]1)C1=CCCC1 [Pt-cyclopentenecarboxylato trans-SS-DACH] | 155 | – | – | – | – | – | – | –
O=C([O][Pt]1([O]C(=O)C2=CCCC2)[NH][C@@H]2CCCC[C@H]2[NH]1)C1=CCCC1 [Pt-cyclopentenecarboxylato trans-RR-DACH, cis-bis-cyclopentenecarboxylato-1,2-trans-RR-DACH-Pt (II)-3H2 O] | 187 | 94 | – | – | – | – | – | stability compared with Pt cyclopentenecarboxylato-racemic-DACH, in words [2]: greater stability
O=C([O][Pt]1([O]C(=O)C2=CCCC2)[NH]C2CCCCC2[NH]1)C1=CCCC1 (mixture of isomers) [Pt-cyclopentenecarboxylato racemic-DACH mixture, cis-bis-cyclopentenecarboxylato-1,2-DACH-platinum (II)] | 213 | 89 | – | – | – | – | – | % T/C (L1210 mouse leukemia; 6.25 mg/kg × 3 ip, days 1, 5 and 9): 168%; % T/C, mean (L1210 mouse leukemia; 12.5 mg/kg and 25 mg/kg, single ip dose, means of three experiments): 162%; % T/C (L1210 mouse leukemia; 12.5 mg/kg ip day 1, Exp. 1): 173%; % T/C (L1210 mouse leukemia; 12.5 mg/kg ip day 1, Exp. 2): 136%; % T/C (L1210 mouse leukemia; 12.5 mg/kg ip day 1, Exp. 3): 179%; % T/C (L1210 mouse leukemia; 12.5 mg/kg × 3 ip, days 1, 5 and 9): 284%; % T/C (L1210 mouse leukemia; 25 mg/kg ip day 1, Exp. 3): 168%; % T/C (L1210 mouse leukemia; 25 mg/kg × 3 ip, days 1, 5 and 9): 158%; BUN at 96 hours ([4]; listed as Free PT): 34.4 ± 9.6 mg %; BUN at 96 hours ([4]; listed as PT in suspension in hydroxypropylcellulose): 34.4±9.6 mg %; BUN elevation, in words ([4]; ip, LD50 dose, 96 hours): no significant BUN elevations; LD50 Dose ([5]; ip single injection (Table 4, CD1 mice), 20160 min): 91 mg/kg; LD10 ([5]; ip × 1): 61 mg/kg; LD90 ([5]; ip × 1): 125 mg/kg; LD50 ([5]; ip × 1, 20160 min): 91 mg/kg; ID50 (L1210 cells): 1.3 micro g/ml
CCCCCCCCCCN1CC(=O)[O][Pt]2([NH][C@@H]3CCCC[C@H]3[NH]2)[O]C(=O)C1 [Pt-N-decyliminodiacetato-trans-RR-DACH, cis-bis-n-decyliminodiacetato-trans-RR-DACH-Pt (II)] | 162 | 100 | – | – | – | – | – | –
Cis-bis-neodecanoato-trans-R,R-1,2-diaminocyclohexane-platinum | – | – | 170 | 25 | 93 | – | – | –
cis-bis-neodecanoato-bis-cyclohexylamine-platinum (II) | – | – | 125 | 100 | 89 | highly soluble | insoluble | –
CCCCCCCCCCN1CC(=O)[O][Pt]2([NH]C3CCCCC3[NH]2)[O]C(=O)C1 (mixture of isomers) [Pt-N-decyliminodiaceto-racemic-DACH mixture, cis-bis-n-decyliminodiaceto-DACH-platinum (II)] | 150 | 100 | – | – | – | – | – | –
cis-bis-neodecanoatoDACH-platinum II [Pt-neodecanoato-racemic DACH-mixture] | – | 100 | – | – | – | highly soluble | insoluble | % T/C (L1210 mouse leukemia; 50 mg/kg ip day 1, liposomes DMPC:DMPG 7:3 (Table 8)): 187%; % Encapsulation Efficiency [1]: 99%; stability compared with Pt cyclopentenecarboxylato-racemic-DACH, in words [2]: greater stability
CCCCCCCCCC(=O)[O][Pt]1([O]C(=O)CCCCCCCCC)[NH][C@@H]2CCCC[C@H]2[NH]1 [cis-bis-decanoato-trans-R,R-1,2-diaminocyclohexane-platinum II] | – | – | 187 | 50 | – | – | – | –
